Reference: US8461082B2, “Herbicidal composition and method for removing unwanted foliage” (priority 2006, dated 2013)

How the values were obtained:
[1] = Examples 4-6 mixing in 1000 L commercial spray tank, dissolution and pH; assay type: physicochemical
Text: A commercial “Silvan” Trailing Boom Spray fitted with a 1000 L tank was used for this experiment. The boom was 10 m wide.
The glyphosate material used was glyphosate acid (purity 95%) with a particle size where 95% can pass through a 1.2 mm sieve.
The spray tank was filled with 900 L of water. The recirculation or agitation system was driven by a power take off (“PTO”) from the tractor. The recirculation system consisted of a wet boom, submerged at the base of the tank with outlets to one side of the tank's midline. […] This is acceptable agitation by commercial spray boom standards.
With the PTO operating, a blend made from 0.979 kg of the surfactant Empigen BB and 1.57 kg of the monoethanolamine was poured into the tank and allowed to disperse for one minute.
4.26 kg of glyphosate acid was then tipped into the water.
A commercial “Silvan” brand Trailing Boom Spray fitted with a 1000 L tank was use for this experiment. The boom was 10 m wide.
Glyphosate acid (purity 95%) with a particle size where 95% can pass through a 0.5 mm sieve.
The spray tank was filled with 900 L of water. The recirculation or agitation system was driven by a PTO from the tractor. The recirculation system consisted of a wet boom at the base of the tank with outlets to one side of the tank's midline. […] This is adequate agitation by commercial spray boom standards.
4.26 kg of the milled glyphosate acid was tipped into the water.
A commercial “Silvan” Trailing Boom Spray fitted with a 1000 L tank was use for this experiment. The boom was 10 m wide.
Glyphosate acid (purity 95%) with a particle size where 95% can pass through a 1.2 mm sieve but not through a 0.5 mm sieve.
A blend made from 0.979 kg of the surfactant Empigen BB, a cocobetaine surfactant, and 1.57 kg of the monoethanolamine (MEA) was poured into the tank and allowed to disperse for one minute. A sample of water was collected and analysed for pH.
A plastic mesh insert with holes of 3-4 mm diameter was fitted into the mouth of the tank and 4.26 kg of glyphosate acid was tipped into the insert. […]
A sample of water was then taken and analysed for pH.

[2] = Dissolution of glyphosate acid on stirring into diluted Alkali Surfactant Blend in 20 L buckets; assay type: physicochemical; settings: bucket, at the higher concentrations
Method: Approximately 13 L of water was added to each of five 20 litre (“L”) plastic buckets (Table 1). Pack 1 was made by taking 37.5 parts monoethanolamine (“MEA”) and 25.3 parts of a cocobetaine surfactant called Empigen BB from Huntsman Chemical Company Australia. Pack 1 was also called the Alkaline-Surfactant Blend in this and later examples.
Glyphosate acid technical material with a purity of 95% and a particle size smaller than 1 mm (Pack 2) was then added to the buckets at the rates given in Table 1 and stirred with a plastic paddle until all the acid disappeared. This took 3-5 minutes at the higher concentrations.
Approximately 13 L of water was added to seven 20 L plastic buckets (Table 5). A blend of 37.5 parts MEA and 25.3 parts of the cocobetain surfactant Empigen BB was made to form the Alkali Surfactant Blend (Pack 1). Glyphosate acid (Pack 2) with a purity of 95% was then added to the buckets at the rates given in Table 5 and stirred with a plastic paddle until all the acid disappeared. This took 3-5 minutes at the higher concentrations.
Approximately 13 L of water was added to seven 20 L plastic buckets (Table 22). The Alkali Surfactant Blend of monoethanolamine and the cocamidopropyl betaine (Pack 1) was then added to the water at the rates given in the Table. […]

In the case of `O=C(O)CNCP(=O)(O)O` [glyphosate acid, N-phosphonomethyl glycine], the “dissolution of glyphosate acid in spray tank” value ([1]; Example 4: 4.26 kg acid (95% passes 1.2 mm sieve) tipped into 900 L water with MEA/Empigen BB blend, agitated, no mesh insert) is reported as “almost all disappeared over the next 5 minutes”, the “time for glyphosate acid to disappear in spray tank” value ([1]; Example 5: 4.26 kg milled acid (95% passes 0.5 mm sieve) tipped into 900 L water with MEA/Empigen BB blend, agitated, no mesh insert) is reported as ≤ 10 min and the “undissolved acid in spray tank after washing through mesh” value ([1]; Example 6: 4.26 kg acid washed through 3-4 mm plastic mesh insert over 1-2 minutes into 900 L water with MEA/Empigen BB blend) is reported as “no evidence of undissolved acid”. For the same compound, the “time stirred until all the acid disappeared” value ([2]; about 13 L water with MEA/Empigen BB blend) was 3 to 5 min and the “time stirred until all the acid disappeared” value ([2]; about 13 L water with MEA/cocamidopropyl betaine blend) was “approximately 3 minutes”.
